Data on seven compounds can be found in PubChem BioAssay (NCI).

For orientation: TGI means the concentration giving total growth inhibition.

Holding throughout (experiment): DTP human tumour cell line panel, 48 h
Experiment [1] has as its system EKVX NSCLC.
Experiment [2] relates to SK-OV-3 ovarian.
Experiment [3] relates to ACHN renal.
The test system of experiment [4] is COLO 205 colon.
For experiment [5], the system named is TK-10 renal.
Experiment [6] has as its system HOP-62 NSCLC.
Experiment [7] deals with BT-549 breast.
In experiment [8] the test system is SF-295 CNS.
Experiment [9] deals with M14 melanoma.
For experiment [10], the system named is HCT-15 colon.
For experiment [11], the system named is SF-268 CNS.
Experiment [12] has as its system MCF7 breast.
Experiment [13] has as its system DU-145 prostate.
Experiment [14] deals with MALME-3M melanoma.
Experiment [15] relates to CCRF-CEM leukemia.
For experiment [16], the system named is SR leukemia.
For experiment [17], the system named is A498 renal.
For experiment [18], the system named is MDA-MB-231 breast.
For experiment [19], the system named is HL-60(TB) leukemia.

Molecules are shown by their SMILES.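 A five-concentration, 48-hour dose response in 96-well plates underlies each endpoint, interpolated linearly between surrounding concentrations. Definition used: TGI = concentration required for complete inhibition of growth.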

In the case of `Cc1cccc2c1[C@]13OC(C)[C@]4(C)CC5OC(=O)[C@@]1(C)[C@@H]5[C@]34C(=O)O2` (stereo partly drawn), the TGI in [1], in [2], in [3], in experiment [4], in [5] and in experiment [6] was > 100 µM throughout. Moreover, the total growth inhibition concentration (TGI) in [7], in experiment [8], in experiment [9], in experiment [10], in experiment [11] and in experiment [12] was > 100 µM in each case. In addition, the TGI in [13], in experiment [14], in experiment [15], in experiment [16], in experiment [17] and in experiment [18] was > 100 µM throughout. The TGI in [19] is > 100 µM.

As for `CCOC(=O)C(N)CSC(=O)NC` (stereo not drawn), the TGI in experiment [1] was found to be 546 µM; in experiment [2], 621 µM; in [3], 510 µM; in experiment [4] it was 360 µM; in experiment [5], 566 µM; in experiment [6], 567 µM. In addition, the concentration for total growth inhibition (TGI) in [7] was 346 µM; in experiment [8] it was 592 µM; in experiment [9], 275 µM; in [10], 312 µM; in experiment [11], 443 µM; in [12] it was 425 µM. Also, the TGI in experiment [13] was 597 µM; in [14] it was 306 µM; in experiment [15] it was 147 µM; in experiment [16], 158 µM; in experiment [17], 594 µM; in experiment [18], 340 µM. In addition, the TGI in experiment [19] was 272 µM.

As for `O=C(c1ccccc1)c1c(-c2ccccc2)[nH]n(-c2ccc([N+](=O)[O-])cc2)c(=O)c1=O`, the TGI in experiment [1], in experiment [2], in [3], in experiment [4], in experiment [5] and in experiment [6] was > 100 µM each time. In addition, the TGI in experiment [7] was 98.8 µM; in [8], > 100 µM; in [9], > 100 µM; in [10], > 100 µM; in experiment [11], > 100 µM; in experiment [12] it was > 100 µM. Also, the TGI in experiment [13] is > 100 µM; in experiment [14] it was > 100 µM; in [15] it was > 100 µM; in [16], > 100 µM; in [17], > 100 µM; in experiment [18] it was 98.9 µM. The total growth inhibition concentration (TGI) in experiment [19] is > 100 µM.

For the compound `CCC1OC2C(CC=C(C)C)=C3OC(C)(O)C(C)(CC)C(OC(=O)c4ccccc4)C3=C3OC(=O)C=C1C32` (stereo not drawn), the TGI in [1] was > 100 µM; in experiment [2], > 100 µM; in experiment [3], > 100 µM; in [4], 39.8 µM; in experiment [5] it was > 100 µM; in [6], > 100 µM. Also, the TGI was 47.7 µM in [7]; > 100 µM in experiment [8]; > 100 µM in [9]; > 100 µM in experiment [10]; > 100 µM in [11]; > 100 µM in experiment [12]. For the same compound, the TGI in experiment [13] is > 100 µM; in experiment [14], > 100 µM; in experiment [15] it was > 100 µM; in [16] it was > 100 µM; in [17], > 100 µM; in experiment [18], 49.1 µM. Further, the TGI in experiment [19] is > 100 µM.

`O=c1cc(-c2ccccc2)[nH]c2cc3c(cc12)OCO3`: the TGI is > 100 µM in experiment [1]; 26 µM in experiment [2]; > 100 µM in experiment [3]; 65.7 µM in experiment [4]; > 94 µM in experiment [5]; > 90.3 µM in experiment [6]. The total growth inhibition concentration (TGI) is > 100 µM in [7]; > 42.3 µM in experiment [8]; > 80.2 µM in [9]; > 100 µM in [10]; > 17.5 µM in experiment [11]; > 100 µM in [12]. The TGI was > 100 µM in experiment [13]; > 82.9 µM in [14]; > 100 µM in experiment [15]; 67.4 µM in experiment [16]; 63.1 µM in experiment [17]; > 100 µM in [18]. Besides, the TGI in experiment [19] amounted to 53 µM.

For the compound `CC1(C)OCC2OC3(c4nc(C#N)c(N)o4)OC(C)(C)OC3C2O1` (stereo not drawn), the TGI in experiment [1], in experiment [2], in [3], in experiment [4], in experiment [5] and in experiment [6] was > 100 µM each time. For the same compound, the TGI in experiment [7], in [8], in experiment [9], in experiment [10], in [11] and in experiment [12] was > 100 µM each time. Also, the TGI in [13], in experiment [14], in experiment [15], in experiment [16], in [17] and in experiment [18] was > 100 µM each time. Besides, the TGI in [19] was > 100 µM.

Regarding `COc1ccc2c(c1C)C(=O)C(O)(CC=C(C)C)O2` (stereo not drawn), the TGI in experiment [1], in [2], in experiment [3], in experiment [4], in experiment [5] and in experiment [6] was > 100 µM each time. In addition, the TGI in experiment [7], in experiment [8], in [9], in experiment [10], in experiment [11] and in experiment [12] was > 100 µM each time. Moreover, the TGI in experiment [13], in experiment [14], in experiment [15], in experiment [16], in experiment [17] and in experiment [18] was > 100 µM throughout. In addition, the TGI in [19] is > 100 µM.
